Results from the Kinase Knowledgebase extract (Sharma et al. 2016).

target: PIK3CG (human) (UniProt P48736); experiment: Assessment of PIK3CG Kinase Activity
Sequence (P48736 whole entry, looked up): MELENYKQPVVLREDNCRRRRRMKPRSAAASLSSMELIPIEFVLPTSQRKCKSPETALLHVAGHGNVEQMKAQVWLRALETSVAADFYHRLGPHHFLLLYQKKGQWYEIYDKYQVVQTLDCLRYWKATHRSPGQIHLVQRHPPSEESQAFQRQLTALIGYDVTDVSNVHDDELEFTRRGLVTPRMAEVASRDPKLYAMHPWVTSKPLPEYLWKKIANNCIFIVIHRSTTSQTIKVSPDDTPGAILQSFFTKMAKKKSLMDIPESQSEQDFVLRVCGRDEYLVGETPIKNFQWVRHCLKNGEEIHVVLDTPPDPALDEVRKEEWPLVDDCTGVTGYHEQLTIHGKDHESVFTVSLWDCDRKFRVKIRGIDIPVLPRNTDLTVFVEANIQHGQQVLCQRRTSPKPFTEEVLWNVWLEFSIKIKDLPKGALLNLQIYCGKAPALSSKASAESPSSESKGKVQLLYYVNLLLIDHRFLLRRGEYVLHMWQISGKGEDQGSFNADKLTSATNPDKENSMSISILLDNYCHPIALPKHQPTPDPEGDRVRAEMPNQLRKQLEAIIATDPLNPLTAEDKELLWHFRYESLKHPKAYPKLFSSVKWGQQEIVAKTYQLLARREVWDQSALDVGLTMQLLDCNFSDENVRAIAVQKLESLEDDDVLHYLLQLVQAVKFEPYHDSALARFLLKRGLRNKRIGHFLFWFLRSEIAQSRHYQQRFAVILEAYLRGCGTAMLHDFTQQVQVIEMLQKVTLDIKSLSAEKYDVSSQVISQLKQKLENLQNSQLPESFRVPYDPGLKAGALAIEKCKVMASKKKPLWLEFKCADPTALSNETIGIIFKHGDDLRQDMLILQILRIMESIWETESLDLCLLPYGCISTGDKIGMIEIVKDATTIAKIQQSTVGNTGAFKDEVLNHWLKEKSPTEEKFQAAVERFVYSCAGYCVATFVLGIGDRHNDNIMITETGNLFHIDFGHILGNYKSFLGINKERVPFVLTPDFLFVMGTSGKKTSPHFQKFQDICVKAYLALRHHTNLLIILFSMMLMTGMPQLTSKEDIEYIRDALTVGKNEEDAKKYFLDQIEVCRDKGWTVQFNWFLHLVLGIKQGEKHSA

Row | SMILES | IC50 [nM]
1 | COc1cc2c(Oc3ccc(C(O)c4ccccc4)cc3)c(C(=O)Nc3nn[nH]n3)sc2cc1C (configuration not stated) | 8
2 | COc1cc2c(Oc3ccc(C4CCOCC4)cc3)c(C(=O)Nc3nn[nH]n3)sc2cc1C | 9
3 | COc1cc2c(Oc3ccc(C4CCSCC4)cc3)c(C(=O)Nc3nn[nH]n3)sc2cc1C | 8
4 | COc1cc2sc(C(=O)Nc3nnn[nH]3)c(OCc3ccc4ccccc4c3)c2cc1OC | 210
5 | COc1cc2c(Oc3ccc(C(C4CCCCC4)N4CCCCC4)cc3)c(C(=O)Nc3nn[nH]n3)sc2cc1C (configuration not stated) | 715
6 | COc1cc2c(Oc3ccc(C4CCN(C(C)=O)CC4)cc3)c(C(=O)Nc3nn[nH]n3)sc2cc1C | 14
7 | COc1cc2c(Oc3ccc(C4CC(C)(C)CC(C)(C)C4)cc3)c(C(=O)Nc3nn[nH]n3)sc2cc1C | 325
8 | COc1cc2c(Oc3ccc(C4CCCC(O)C4)cc3)c(C(=O)Nc3nn[nH]n3)sc2cc1C (configuration not stated) | 8
9 | COc1cc2c(Oc3ccc(C(=O)c4ccccc4)cc3)c(C(=O)Nc3nn[nH]n3)sc2cc1C | 27
10 | COc1cc2c(Oc3ccc(C4CCN(C(=O)C(C)(C)NC(=O)OC(C)(C)C)CC4)cc3)c(C(=O)Nc3nn[nH]n3)sc2cc1C | 20

Further compounds by falling IC50, results first:

Row | IC50 [nM] | SMILES
11 | 2610 | COc1cc2sc(C(=O)Nc3nnn[nH]3)c(Oc3ccc(CCCSc4ccc(Cl)cc4)cc3)c2cc1C
12 | 2340 | COc1cc2c(Oc3ccc(C(C)(C)C)c(C(C)(C)C)c3)c(C(=O)Nc3nn[nH]n3)sc2cc1C
13 | 388 | COc1cc2sc(C(=O)Nc3nn[nH]n3)c(Oc3cccc(C(=N)N)c3)c2cc1C
14 | 365 | COc1cc2c(Oc3ccc(C4CCNCC4)cc3)c(C(=O)Nc3nn[nH]n3)sc2cc1C
15 | 240 | COc1cc2sc(C(=O)Nc3nnn[nH]3)c(Oc3ccc(CCCSC4CCCCC4)cc3)c2cc1C
16 | 56 | COc1cc2c(OC[C@H](C)c3ccccc3)c(C(=O)Nc3nn[nH]n3)sc2cc1C
17 | 11 | COc1cc2c(Oc3ccc(C4CCN(C(=O)C(C)C)CC4)cc3)c(C(=O)Nc3nn[nH]n3)sc2cc1C
